From patent US20260242438A1 (INSTITUTE OF MATERIA MEDICA, CHINESE ACADEMY OF MEDICAL …, priority 2022, published 2026) come the findings set out here.

SMILES strings stand for the structures. Where a SMILES comes first, the peptide text is derived from it. Bridges are numbered along the chain shown (N, C = ends).

The target of this assay is chymotrypsin (Bos taurus, UniProt P00766). Put plainly: Determination of enzyme inhibitory activity against chymotrypsin (substrate AAPFpNA, OD 405 nm). Particulars: for IC50: chymotrypsin 30 nM, AAPFpNA 0.5 mM, pH 7.8, 37° C.; for remaining activity at 0.001 µM: peptide 0.001 μM; for remaining activity at 0.01 µM: peptide 0.01 μM; for remaining activity at 0.1 µM: peptide 0.1 μM; for remaining activity at 0.5 µM: peptide 0.5 μM; for remaining activity at 0.75 µM: peptide 0.75 μM; for remaining activity at 1 µM: peptide 1 μM; for remaining activity at 10 µM: peptide 10 μM; for remaining activity at 100 µM: peptide 100 μM; for remaining activity at 1000 µM: peptide 1000 μM; for remaining activity at 0.2 µM: peptide 0.2 μM; for remaining activity at 0.4 µM: peptide 0.4 μM; for remaining activity at 0.8 µM: peptide 0.8 μM; for inhibitory activity reduced (fold): relative to CH10; for remaining activity at 0.0001 µM: peptide 0.0001 μM; for remaining activity at 0.05 µM: peptide 0.05 μM; for remaining activity at 0.25 µM: peptide 0.25 μM. Format: biochemical. The procedure:
The substrates N-succinyl-Ala-Ala-Pro-Phe-p-nitroaniline (AAPFpNA) is used in competitive binding reaction to determine the inhibitory activities against α -chymotrypsin. Experiments for a-chymotrypsin was measured in 20 mM CaCl2, 50 mM Tris-HCl buffer (pH 7.8). The concentration of the peptide was measured using optical density (OD) at 280 nm. The Michaelis constant (Km) of the enzyme hydrolysis substrate is calculated from the initial rate of substrate hydrolysis at 405 nm. The absorbance value of the substrate was measured at 405 nm after complete hydrolysis. All data were processed using nonlinear regression.
(1) Added a total 190 μL of reaction buffer (20 mM CaCl2, 50 mM Tris-HCl (pH 7.8)), different concentrations of anti-chymorypsin peptides (CHs) into the pre-cold 96 well plate, followed by preheating at 37° C. for 5 min and centrifugated at 500 rpm for 1 min and allowed to stand for 4 minutes. Then added 8 μL of 750 nM chymotrypsin and incubated at 37° C. for 10 min, and centrifugated at 500 rpm for 1 min and allowed to stand for 9 minutes. Finally, added 2 μL of 50 mM AAPFpNA, and mixed by centrifugation at 500 rpm for 1 min. The plate was incubated at 37° C. for 90 min, and the absorbance value at 405 nm was measured. Three repetitions were made, and only reaction buffer and substrate were added in the blank control as the minimum absorption value (Min OD 405 nm); Only reaction buffer, enzyme and substrate were added in the negative control as the maximum absorption value (Max OD 405 nm).
(2) In the 200 μL of reaction system, the final concentrations of chymotrypsin and AAPFpNA were 30 nM and 0.5 mM, respectively.
Plotted the residual activity of enzyme with […] to obtain the half inhibitory concentration (IC50) of anti-chymorypsin peptides (CHs). Then, substituted it into the formula […]/(1+S/Km) (S, IC50, and Km were substrate concentration, half inhibitory concentration, and Michaelis constant, respectively) to obtain the inhibition constant Ki of anti-chymorypsin peptides (CHs).

[1] abbreviates: read-out: Residual activity of chymotrypsin.

What is called Ki is the dissociation constant of the complex between target and ligand, obtained from inhibition or displacement. The low end stands for higher affinity, the high end for lower affinity. Broadly, the IC50 is the concentration that gives 50% inhibition. As to `CC[C@H](C)[C@@H]1NC(=O)[C@H](CO)NC(=O)[C@H](Cc2ccc(O)cc2)NC(=O)[C@H]([C@@H](C)O)NC(=O)[C@@H](NC(=O)[C@@H](N)Cc2ccccc2)CSSC[C@@H](C(=O)N[C@@H](Cc2ccc(O)cc2)C(=O)O)NC(=O)[C@H](CCC(N)=O)NC(=O)[C@@H]2CCCN2C(=O)[C@@H]2CCCN2C1=O` [CH33] (H-FCTYSIPPQCY-OH; disulfide 2-10; C-terminus assumed), the Ki is 190 nM and the 50% inhibitory concentration (IC50) turned out to be 440 nM. Also, under setting [1], the remaining activity at 0.001 µM turned out to be 99.5 ± 1.4%, the remaining activity at 0.01 µM is 92.1 ± 2.1%, the remaining activity at 0.1 µM came to 93.6 ± 1.6% and the remaining activity at 0.5 µM is 42.7 ± 3.1%. Further, under setting [1], the remaining activity at 0.75 µM turned out to be 24.6 ± 2%, the remaining activity at 1 µM worked out at 19.8 ± 1%, the remaining activity at 10 µM turned out to be 2 ± 0.2% and the remaining activity at 100 µM is 0.1%. Moreover, under setting [1], the remaining activity at 1000 µM worked out at 0.1%.

Take `CC[C@H](C)[C@@H]1NC(=O)[C@H](CO)NC(=O)[C@H](Cc2ccc(O)cc2)NC(=O)[C@H]([C@@H](C)O)NC(=O)[C@@H](NC(=O)[C@@H]2CCCN2)CSSC[C@@H](C(=O)N[C@@H](Cc2ccc(O)cc2)C(=O)O)NC(=O)[C@H](CCC(N)=O)NC(=O)[C@@H]2CCCN2C(=O)[C@@H]2CCCN2C1=O` [CH51] (H-PCTYSIPPQCY-OH; disulfide 2-10; C-terminus assumed): the affinity corresponds to a Ki of 200 nM, the IC50 came out at 460 nM and the “inhibitory activity reduced (fold)” value is recorded as ~7 times. Also, under setting [1], the remaining activity at 0.001 µM was 100 ± 1.2%, the remaining activity at 0.01 µM is 100 ± 0.2%, the remaining activity at 0.1 µM was found to be 95.4 ± 2.2% and the remaining activity at 0.2 µM was 80.3 ± 3.9%. Also, under setting [1], the remaining activity at 0.4 µM turned out to be 54.2 ± 1.8%, the remaining activity at 0.8 µM was 31.2 ± 1.6%, the remaining activity at 1 µM worked out at 24.3 ± 2.4% and the remaining activity at 10 µM was 3 ± 0.2%. The remaining activity at 100 µM under setting [1] turned out to be 0.3%.

In the case of `CC[C@H](C)[C@@H]1NC(=O)[C@H](CO)NC(=O)[C@H](Cc2ccccc2)NC(=O)[C@H]([C@@H](C)O)NC(=O)[C@@H](NC(=O)[C@@H](N)CO)CSSC[C@@H](C(=O)N[C@@H](Cc2ccc(O)cc2)C(=O)NCC(=O)O)NC(=O)[C@H](CCC(N)=O)NC(=O)[C@@H]2CCCN2C(=O)[C@@H]2CCCN2C1=O` [CH11] (H-SCTFSIPPQCYG-OH; disulfide 2-10; C-terminus assumed), the Ki is 150 nM, the IC50 was 350 nM and the “inhibitory activity reduced (fold)” value was ~7 times. In addition, under setting [1], the remaining activity at 0.001 µM was found to be 98.5 ± 3.1%, the remaining activity at 0.01 µM came to 104 ± 1.8%, the remaining activity at 0.1 µM was 95.3 ± 3% and the remaining activity at 1 µM was 17.6 ± 0.8%. Also, under setting [1], the remaining activity at 10 µM is 6.5 ± 0.3% and the remaining activity at 100 µM is 1.1 ± 0.2%. For the same compound, where the note is “peptide 0.15 μM, read-out: Residual activity of chymotrypsin”, the remaining activity at 0.15 µM stood at 82.3 ± 3.3%. Under “peptide 5 μM, read-out: Residual activity of chymotrypsin”, the remaining activity at 5 µM came to 12.5 ± 0.7%. Further, where the note is “peptide 300 μM, read-out: Residual activity of chymotrypsin”, the remaining activity at 300 µM is 0.2 ± 0.6%.

As for `CC[C@H](C)[C@@H]1NC(=O)[C@@H]2CCCN2C(=O)[C@@H]2CCCN2C(=O)[C@H]([C@@H](C)CC)NC(=O)[C@H](CO)NC(=O)[C@H](Cc2ccc(O)cc2)NC(=O)[C@H]([C@@H](C)O)NC(=O)[C@@H](NC(=O)[C@@H](NC(=O)CN)[C@@H](C)O)CSSC[C@@H](C(=O)N[C@@H](CC(N)=O)C(=O)O)NC1=O` [CH62] (H-GTCTYSIPPICN-OH; disulfide 3-11; C-terminus assumed), the affinity, expressed as Ki, was 60 nM and half-maximal inhibition (IC50) required 150 nM. Besides, under setting [1], the remaining activity at 0.0001 µM came out at 100.9 ± 0.8%, the remaining activity at 0.01 µM worked out at 102 ± 2.2%, the remaining activity at 0.05 µM was 83.4 ± 8.3% and the remaining activity at 0.1 µM was determined as 56.4 ± 2%. Besides, under setting [1], the remaining activity at 0.25 µM worked out at 40.9 ± 6.8%, the remaining activity at 0.5 µM is 25.1 ± 1.5%, the remaining activity at 1 µM came out at 14.2 ± 5.9% and the remaining activity at 10 µM amounted to 0.8 ± 0.1%. The remaining activity at 100 µM under setting [1] is 0.1%.

Turning to `CC[C@H](C)[C@@H]1NC(=O)[C@@H]2CCCN2C(=O)[C@@H]2CCCN2C(=O)[C@H]([C@@H](C)CC)NC(=O)[C@H](CO)NC(=O)[C@H](Cc2ccc(O)cc2)NC(=O)[C@H]([C@@H](C)O)NC(=O)[C@@H](NC(=O)[C@@H](NC(=O)CN)[C@@H](C)O)CSSC[C@@H](C(=O)N[C@@H](CC(N)=O)C(=O)N2CCC[C@H]2C(=O)O)NC1=O` [CH61] (H-GTCTYSIPPICNP-OH; disulfide 3-11; C-terminus assumed), the Ki worked out at 50 nM and the concentration for half-maximal inhibition (IC50) was found to be 120 nM. For the same compound, under setting [1], the remaining activity at 0.0001 µM came to 100.9 ± 0.6%, the remaining activity at 0.001 µM was 100.1 ± 0.7%, the remaining activity at 0.01 µM came out at 97.3 ± 5.4% and the remaining activity at 0.05 µM is 86.1 ± 3.3%. Moreover, under setting [1], the remaining activity at 0.1 µM was 44.2 ± 4.5%, the remaining activity at 0.5 µM is 24.3 ± 2.5%, the remaining activity at 1 µM was determined as 13.3 ± 1.7% and the remaining activity at 10 µM is 1.7%. Besides, the remaining activity at 100 µM under setting [1] amounted to 0.2%.

`CC[C@H](C)[C@@H]1NC(=O)[C@@H]2CCCN2C(=O)[C@@H]2CCCN2C(=O)[C@H]([C@@H](C)CC)NC(=O)[C@H](CO)NC(=O)[C@H](Cc2ccc(O)cc2)NC(=O)[C@H]([C@@H](C)O)NC(=O)[C@@H](NC(=O)[C@@H](N)CCCCN)CSSC[C@@H](C(=O)N[C@@H](Cc2ccccc2)C(=O)O)NC1=O` [CH64] (H-KCTYSIPPICF-OH; disulfide 2-10; C-terminus assumed) showed an inhibition constant Ki of 400 nM and an IC50 of 930 nM.

Regarding `CC[C@H](C)[C@@H]1NC(=O)[C@@H]2CCCN2C(=O)[C@@H]2CCCN2C(=O)[C@H]([C@@H](C)CC)NC(=O)[C@H](CO)NC(=O)[C@H](Cc2ccc(O)cc2)NC(=O)[C@H]([C@@H](C)O)NC(=O)[C@H](C)NC(=O)[C@H](CCCNC(=N)N)NC(=O)CNC(=O)[C@@H](N)CSSC[C@@H](C(=O)N[C@@H](Cc2ccccc2)C(=O)N2CCC[C@H]2C(=O)N[C@@H](CC(=O)O)C(=O)O)NC1=O` [CH65] (H-CGRATYSIPPICFPD-OH; disulfide 1-12; C-terminus assumed), affinity was put at a Ki of 210 nM and half-maximal inhibition (IC50) was put at 480 nM. Further, under setting [1], the remaining activity at 0.001 µM turned out to be 99.8 ± 2%, the remaining activity at 0.1 µM was 97.8 ± 4.4%, the remaining activity at 0.25 µM was found to be 89.5 ± 2.9% and the remaining activity at 0.5 µM was 48.2 ± 3.6%. Besides, under setting [1], the remaining activity at 0.75 µM came to 11.7 ± 1.4%, the remaining activity at 1 µM was 8.9 ± 1.4%, the remaining activity at 10 µM amounted to 4.1 ± 2.3% and the remaining activity at 100 µM is 0.1 ± 0.1%. Further, the remaining activity at 1000 µM under setting [1] turned out to be 0.2%.

On to `CC[C@H](C)[C@@H]1NC(=O)[C@H](CO)NC(=O)[C@H](Cc2ccc(O)cc2)NC(=O)[C@H]([C@@H](C)O)NC(=O)[C@@H](NC(=O)[C@@H](N)Cc2ccccc2)CSSC[C@@H](C(=O)N[C@@H](CCCNC(=N)N)C(=O)O)NC(=O)[C@H](CCC(N)=O)NC(=O)[C@@H]2CCCN2C(=O)[C@@H]2CCCN2C1=O` [CH35] (H-FCTYSIPPQCR-OH; disulfide 2-10; C-terminus assumed), for which the Ki was found to be 190 nM, the IC50 was found to be 450 nM and the “inhibitory activity reduced (fold)” value was ~7 times. Besides, under setting [1], the remaining activity at 0.001 µM stood at 100.8 ± 0.9%, the remaining activity at 0.01 µM was found to be 101 ± 1.2%, the remaining activity at 0.1 µM came to 101 ± 2.6% and the remaining activity at 0.2 µM was 78.9 ± 2.9%. Further, under setting [1], the remaining activity at 0.4 µM worked out at 58.8 ± 3.4%, the remaining activity at 0.8 µM stood at 27.3 ± 2.9%, the remaining activity at 1 µM was 16.6 ± 4.7% and the remaining activity at 10 µM worked out at 2.6 ± 0.2%. Moreover, under setting [1], the remaining activity at 100 µM was 0%.
